system: HCV replicon; assay: HCV replicon replication assay (NPT level by captured ELISA); type: cell-based; conditions: Hepatitis C virus, 72 h; Huh-7 HCV replicon-containing cells, three days incubation; read-out: Activity (inhibition of HCV replicon replication)
In short: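 Huh-7 cells carrying HCV subgenomic replicon (NS3–NS5B, neo reporter) treated 3 days at 37 °C with 6 concentrations from 10 to 0.03 micromolar in G418-free medium, equal DMSO across wells. Replication measured on day four as NPTII level by in-cell captured ELISA on fixed cells; interferon alpha as positive control.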

Row | Compound | EC50 [nM]
1 | CCCCCCCCOc1ccc(Nc2nc(-c3cncc(C#N)c3)c(F)s2)cc1C(F)(F)F [Cmp 181, 5-(5-fluoro-2-(4-(octyloxy)-3-(trifluoromethyl)phenylamino)thiazol-4-yl)nicotinonitrile] | < 1000
2 | CCCCCCCCc1ccc(Nc2nc(-c3cncc(C#N)c3)c(F)s2)cc1C(F)(F)F [Cmp 182, 5-(5-fluoro-2-(4-octyl-3-(trifluoromethyl)phenylamino)thiazol-4-yl)nicotinonitrile] | < 1000
3 | CCCCCCCCc1oc2ccc(Nc3nc(-c4cccnc4)cs3)cc2c1Cl [Cmp 183, N-(3-chloro-2-octylbenzofuran-5-yl)-4-(pyridin-3-yl)thiazol-2-amine] | < 1000
4 | CCCCCCCCOc1ccc(Nc2nc(-c3cc(F)sc3C(N)=O)cs2)cc1C(F)(F)F [Cmp 184, 5-fluoro-3-(2-(4-(octyloxy)-3-(trifluoromethyl)phenylamino)thiazol-4-yl)thiophene-2-carboxamide] | < 1000
5 | CCCCCCCCc1ccc(Nc2nc(-c3ccc(O)c(C(N)=O)c3)c(Cl)s2)cc1C(F)(F)F [Cmp 185, 5-(5-chloro-2-(4-octyl-3-(trifluoromethyl)phenylamino)thiazol-4-yl)-2-hydroxybenzamide] | < 1000
6 | CCCCCCCCOc1ccc(Nc2nc(-c3ccc(O)c(C(N)=O)c3)c(Cl)s2)cc1C(F)(F)F [Cmp 186, 5-(5-chloro-2-(4-(octyloxy)-3-(trifluoromethyl)phenylamino)thiazol-4-yl)-2-hydroxybenzamide] | < 1000
7 | CCCCCCCCOc1ccc(Nc2nc(-c3cnc4[nH]c(=O)[nH]c4c3)cs2)cc1C(F)(F)F [Cmp 187, 6-(2-(4-(octyloxy)-3-(trifluoromethyl)phenylamino)thiazol-4-yl)-1H-imidazo[4,5-b]pyridin-2(3H)-one] | < 1000
8 | CCCCCCCCOc1ccc(Nc2nc(-c3ccsc3C(N)=O)c(F)s2)cc1C(F)(F)F [Cmp 188, 3-(5-fluoro-2-(4-(octyloxy)-3-(trifluoromethyl)phenylamino)thiazol-4-yl)thiophene-2-carboxamide] | < 1000
9 | CCCCCCCCc1oc2ccc(Nc3nc(-c4cccnc4)c(F)s3)cc2c1Cl [Cmp 189, N-(3-chloro-2-octylbenzofuran-5-yl)-5-fluoro-4-(pyridin-3-yl)thiazol-2-amine] | < 1000
10 | Fc1sc(Nc2ccc(OCCCCC3CCCC3)c(C(F)(F)F)c2)nc1-c1cccnc1 [Cmp 190, N-(4-(4-cyclopentylbutoxy)-3-(trifluoromethyl)phenyl)-5-fluoro-4-(pyridin-3-yl)thiazol-2-amine] | < 1000
11 | Fc1sc(Nc2ccc(OCCC#CC3CCCC3)c(C(F)(F)F)c2)nc1-c1cccnc1 [Cmp 191, N-(4-(4-cyclopentylbut-3-ynyloxy)-3-(trifluoromethyl)phenyl)-5-fluoro-4-(pyridin-3-yl)thiazol-2-amine] | < 1000
12 | CCCOCCCCCc1ccc(Nc2nc(-c3cccnc3)c(F)s2)cc1C(F)(F)F [Cmp 192, 5-fluoro-N-(4-(5-propoxypentyl)-3-(trifluoromethyl)phenyl)-4-(pyridin-3-yl)thiazol-2-amine] | < 1000
13 | CCCCCCCCc1cc2cc(Nc3nc(-c4cncc(C#N)c4)cs3)ccc2o1 [Cmp 203, 5-(2-(2-octylbenzofuran-5-ylamino)thiazol-4-yl)nicotinonitrile] | < 1000
14 | CCCCCCCCOc1ccc(Nc2nc(-c3ccc4nncn4c3)c(F)s2)cc1C(F)(F)F [Cmp 214, 4-([1,2,4]triazolo[4,3-a]pyridin-6-yl)-5-fluoro-N-(4-(octyloxy)-3-(trifluoromethyl)phenyl)thiazol-2-amine] | < 1000
15 | CCCCCCCC(=O)c1ccc(Nc2nc(-c3cccnc3)c(F)s2)cc1C(F)(F)F [Cmp 215, 1-(4-(5-fluoro-4-(pyridin-3-yl)thiazol-2-ylamino)-2-(trifluoromethyl)phenyl)octan-1-one] | < 1000
16 | Fc1ccc(CCCCCc2ccc(Nc3nc(-c4cccnc4)cs3)cc2C(F)(F)F)cc1 [Cmp 216, N-(4-(5-(4-fluorophenyl)pentyl)-3-(trifluoromethyl)phenyl)-4-(pyridin-3-yl)thiazol-2-amine] | < 1000
17 | Fc1ccc(CCCCCc2ccc(Nc3nc(-c4cccnc4)c(F)s3)cc2C(F)(F)F)cc1 [Cmp 217, 5-fluoro-N-(4-(5-(4-fluorophenyl)pentyl)-3-(trifluoromethyl)phenyl)-4-(pyridin-3-yl)thiazol-2-amine] | < 1000
18 | CCCCCCCC(C)Oc1ccc(Nc2nc(-c3cccnc3)c(F)s2)cc1C(F)(F)F (stereo not drawn) [Cmp 218, 5-fluoro-N-(4-(nonan-2-yloxy)-3-(trifluoromethyl)phenyl)-4-(pyridin-3-yl)thiazol-2-amine] | < 1000
19 | CCCCCCCCc1ccc(Nc2nc(-c3ccccc3)c(CC(=O)O)s2)cc1C(F)(F)F [Cmp 219, 2-(2-(4-octyl-3-(trifluoromethyl)phenylamino)-4-phenylthiazol-5-yl)acetic acid] | 1000 to 10000
20 | CCCCCOCCCc1ccc(Nc2nc(-c3cccnc3)c(F)s2)cc1C(F)(F)F [Cmp 220, 5-fluoro-N-(4-(3-(pentyloxy)propyl)-3-(trifluoromethyl)phenyl)-4-(pyridin-3-yl)thiazol-2-amine] | < 1000
21 | CCCCCCCC(C)(C)Oc1ccc(Nc2nc(-c3cccnc3)c(F)s2)cc1C(F)(F)F [Cmp 221, 5-fluoro-N-(4-(2-methylnonan-2-yloxy)-3-(trifluoromethyl)phenyl)-4-(pyridin-3-yl)thiazol-2-amine] | < 1000
22 | CCCOCCC#Cc1ccc(Nc2nc(-c3cccnc3)c(F)s2)cc1C(F)(F)F [Cmp 222, 5-fluoro-N-(4-(4-propoxybut-1-ynyl)-3-(trifluoromethyl)phenyl)-4-(pyridin-3-yl)thiazol-2-amine] | < 1000
23 | Fc1sc(Nc2ccc(CCCCCOC3CCCC3)c(C(F)(F)F)c2)nc1-c1cccnc1 [Cmp 230, N-(4-(5-(cyclopentyloxy)pentyl)-3-(trifluoromethyl)phenyl)-5-fluoro-4-(pyridin-3-yl)thiazol-2-amine] | < 1000
24 | Fc1sc(Nc2ccc(CCCCCCCCCl)c(C(F)(F)F)c2)nc1-c1cccnc1 [Cmp 231, N-(4-(8-chlorooctyl)-3-(trifluoromethyl)phenyl)-5-fluoro-4-(pyridin-3-yl)thiazol-2-amine] | < 1000
25 | CCCCCCC[C@H](C)Oc1ccc(Nc2nc(-c3cccnc3)c(F)s2)cc1C(F)(F)F [Cmp 232, (S)-5-fluoro-N-(4-(nonan-2-yloxy)-3-(trifluoromethyl)phenyl)-4-(pyridin-3-yl)thiazol-2-amine] | < 1000
26 | CCCCCCC[C@@H](C)Oc1ccc(Nc2nc(-c3cccnc3)c(F)s2)cc1C(F)(F)F [Cmp 233, (R)-5-fluoro-N-(4-(nonan-2-yloxy)-3-(trifluoromethyl)phenyl)-4-(pyridin-3-yl)thiazol-2-amine] | < 1000
27 | CCCCOCCCCc1ccc(Nc2nc(-c3cccnc3)c(F)s2)cc1C(F)(F)F [Cmp 234, N-(4-(4-butoxybutyl)-3-(trifluoromethyl)phenyl)-5-fluoro-4-(pyridin-3-yl)thiazol-2-amine] | < 1000
